# System: beta-TC6 cells
# Assay: Insulin HTRF assay (relative activity Ar) in beta-TC6 cells
# Format: cell-based, mouse
# Settings: Mus musculus, Beta-TC6, 4 h, insulin HTRF, supernatant of beta-TC6 cells, incubation with test compound at 37°C for 2, 3, 4h; read-out: Ar (relative activity)
# Outline: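 beta-TC6 cells (15k/well, seeded 24 or 48 h) washed, then exposed to compound in induction buffer (0.5% DMSO final) for 2, 3 or 4 h at 37°C.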
row,SMILES,Emax [%]
1,"CNc1nc2cnc(Nc3ccc(C(N)=O)cc3)cc2n1Cc1ccc(OC)c(OC)c1 [Compound 664, 4-[[1-[(3,4-dimethoxyphenyl)methyl]-2-(methylamino)imidazo[4,5-c]pyridin-6-yl]amino]benzamide]",50 to 100
2,"CNc1nc2cnc(Nc3ccc(OC)c(OC)c3)cc2n1Cc1ccc(OC)c(OC)c1 [Compound 665, N6-(3,4-dimethoxyphenyl)-1-[(3,4-dimethoxyphenyl)methyl]-N2-methyl-imidazo[4,5-c]pyridine-2,6-diamine]",50 to 100
3,"CNc1nc2cnc(Nc3cccc(Cl)c3)cc2n1Cc1ccc(OC)c(OC)c1 [Compound 666, N6-(3-chlorophenyl)-1-[(3,4-dimethoxyphenyl)methyl]-N2-methyl-imidazo[4,5-c]pyridine-2,6-diamine]",30 to 50
4,"CNc1nc2cnc(Nc3ccccc3)cc2n1Cc1ccc(OC)c(OC)c1 [Compound 667, 1-[(3,4-dimethoxyphenyl)methyl]-N2-methyl-N6-phenyl-imidazo[4,5-c]pyridine-2,6-diamine]",30 to 50
5,"CNc1nc2cnc(-c3ccc4ccccc4c3)cc2n1Cc1ccc(OC)c(OC)c1 [Compound 668, 1-[(3,4-dimethoxyphenyl)methyl]-N-methyl-6-(2-naphthyl)imidazo[4,5-c]pyridin-2-amine]",50 to 100
6,"CNc1nc2cnc(-c3ccccc3)cc2n1Cc1ccc(OC)c(OC)c1 [Compound 669, 1-[(3,4-dimethoxyphenyl)methyl]-N-methyl-6-phenyl-imidazo[4,5-c]pyridin-2-amine]",30 to 50
7,"CNc1nc2cnc(-c3cccc4ccccc34)cc2n1Cc1ccc(OC)c(OC)c1 [Compound 670, 1-[(3,4-dimethoxyphenyl)methyl]-N-methyl-6-(1-naphthyl)imidazo[4,5-c]pyridin-2-amine]",30 to 50
8,"CNc1nc2cnc(Nc3cccc(C)c3)cc2n1Cc1ccc(OC)c(OC)c1 [Compound 671, 1-[(3,4-dimethoxyphenyl)methyl]-N2-methyl-N6-(m-tolyl)imidazo[4,5-c]pyridine-2,6-diamine]",30 to 50
9,"CNc1nc2cnc(-c3ccc(OC)cc3)cc2n1Cc1ccc(OC)c(OC)c1 [Compound 672, 1-[(3,4-dimethoxyphenyl)methyl]-6-(4-methoxyphenyl)-N-methyl-imidazo[4,5-c]pyridin-2-amine]",30 to 50
10,"CNc1nc2cnc(Nc3cccc(C(C)=O)c3)cc2n1Cc1ccc(OC)c(OC)c1 [Compound 673, 1-[3-[[1-[(3,4-dimethoxyphenyl)methyl]-2-(methylamino)imidazo[4,5-c]pyridin-6-yl]amino]phenyl]ethanone]",50 to 100
11,"CNc1nc2cnc(Nc3cccc(F)c3)cc2n1Cc1ccc(OC)c(OC)c1 [Compound 674, 1-[(3,4-dimethoxyphenyl)methyl]-N6-(3-fluorophenyl)-N2-methyl-imidazo[4,5-c]pyridine-2,6-diamine]",30 to 50
12,"CNc1nc2cnc(Nc3ccc(SC)cc3)cc2n1Cc1ccc(OC)c(OC)c1 [Compound 675, 1-[(3,4-dimethoxyphenyl)methyl]-N2-methyl-N6-(4-methylsulfanylphenyl)imidazo[4,5-c]pyridine-2,6-diamine]",50 to 100
13,"CNc1nc2cnc(Nc3cccc(OC(C)C)c3)cc2n1Cc1ccc(OC)c(OC)c1 [Compound 676, 1-[(3,4-dimethoxyphenyl)methyl]-N6-(3-isopropoxyphenyl)-N2-methyl-imidazo[4,5-c]pyridine-2,6-diamine]",30 to 50
14,"COCCNc1nc2cnc(-c3ccc4ccccc4c3)cc2[nH]1 [Compound 677, N-(2-methoxyethyl)-6-(2-naphthyl)-1H-imidazo[4,5-c]pyridin-2-amine]",50 to 100
15,"CNc1nc2cnc(-c3ccc(N(C)C)cc3)cc2n1-c1cccc(F)c1 [Compound 678, 6-(4-dimethylaminophenyl)-1-(3-fluorophenyl)-N-methyl-imidazo[4,5-c]pyridin-2-amine]",> 100
16,"CNc1nc2cnc(Nc3cc(OC)c(OC)c(OC)c3)cc2n1-c1cccc(F)c1 [Compound 679, 1-(3-fluorophenyl)-N2-methyl-N6-(3,4,5-trimethoxyphenyl)imidazo[4,5-c]pyridine-2,6-diamine]",50 to 100
17,"CNc1nc2cnc(Nc3cccc(OC)c3)cc2n1-c1cccc(F)c1 [Compound 680, 1-(3-fluorophenyl)-N6-(3-methoxyphenyl)-N2-methyl-imidazo[4,5-c]pyridine-2,6-diamine]",50 to 100
18,"CNc1nc2cnc(Nc3ccc(C(N)=O)cc3)cc2n1-c1cccc(F)c1 [Compound 681, 4-[[1-(3-fluorophenyl)-2-(methylamino)imidazo[4,5-c]pyridin-6-yl]amino]benzamide]",50 to 100
19,"CNc1nc2cnc(Nc3cccc(N(C)C)c3)cc2n1-c1cccc(F)c1 [Compound 682, N6-[3-(dimethylamino)phenyl]-1-(3-fluorophenyl)-N2-methyl-imidazo[4,5-c]pyridine-2,6-diamine]",50 to 100
20,"CNc1nc2cnc(-c3cccc(N(C)C)c3)cc2n1-c1cccc(F)c1 [Compound 683, 6-[3-(dimethylamino)phenyl]-1-(3-fluorophenyl)-N-methyl-imidazo[4,5-c]pyridin-2-amine]",30 to 50
21,"CNc1nc2cnc(-c3ccc(S(C)(=O)=O)cc3)cc2n1-c1cccc(F)c1 [Compound 684, 1-(3-fluorophenyl)-N-methyl-6-(4-methylsulfonylphenyl)imidazo[4,5-c]pyridin-2-amine]",30 to 50
22,"CNc1nc2cnc(Nc3ccc(OC)cc3)cc2n1-c1cccc(F)c1 [Compound 685, 1-(3-fluorophenyl)-N6-(4-methoxyphenyl)-N2-methyl-imidazo[4,5-c]pyridine-2,6-diamine]",50 to 100
23,"CNc1nc2cnc(Nc3ccc(C#N)cc3)cc2n1-c1cccc(F)c1 [Compound 686, 4-[[1-(3-fluorophenyl)-2-(methylamino)imidazo[4,5-c]pyridin-6-yl]amino]benzonitrile]",30 to 50
24,"CNc1nc2cnc(-c3cccs3)cc2n1-c1cccc(F)c1 [Compound 687, 1-(3-fluorophenyl)-N-methyl-6-(2-thienyl)imidazo[4,5-c]pyridin-2-amine]",50 to 100
25,"CNc1nc2cnc(Nc3cccc(NC(C)=O)c3)cc2n1-c1cccc(F)c1 [Compound 688, N-[3-[[1-(3-fluorophenyl)-2-(methylamino)imidazo[4,5-c]pyridin-6-yl]amino]phenyl]acetamide]",50 to 100
26,"CNc1nc2cnc(Nc3cccc(C(C)=O)c3)cc2n1-c1cccc(F)c1 [Compound 689, 1-[3-[[1-(3-fluorophenyl)-2-(methylamino)imidazo[4,5-c]pyridin-6-yl]amino]phenyl]ethanone]",50 to 100
27,"COc1cc(-n2cnc3cnc(Nc4cccc(C(F)(F)F)c4)cc32)cc(OC)c1OC [Compound 690, N-[3-(trifluoromethyl)phenyl]-1-(3,4,5-trimethoxyphenyl)imidazo[4,5-c]pyridin-6-amine]",> 100
28,"CN(C)c1cccc(Nc2cc3c(cn2)ncn3-c2ccccc2)c1 [Compound 691, N1,N1-dimethyl-N3-(1-phenylimidazo[4,5-c]pyridin-6-yl)benzene-1,3-diamine]",30 to 50
29,"CC(=O)Nc1ccc(Nc2cc3c(cn2)ncn3Cc2ccco2)cc1 [Compound 692, N-[4-[[1-(2-furylmethyl)imidazo[4,5-c]pyridin-6-yl]amino]phenyl]acetamide]",30 to 50
30,"COc1ccc(Nc2cc3c(cn2)ncn3Cc2ccco2)cc1 [Compound 693, 1-(2-furylmethyl)-N-(4-methoxyphenyl)imidazo[4,5-c]pyridin-6-amine]",50 to 100

# Reference: EP2818472A1, “Imidazo[4,5-c]pyridine and pyrrolo[3,2-c]pyridine compounds as G-protein-coupled receptor kinase 5 (GRK5) modulators” (Max-Planck-Gesellschaft zur Förderung der Wissenschaften …, priority 2013, dated 2014)
